Target: T1, free GFP (Aequorea victoria, UniProt P42212)
T1 construct: expressed in transfected cells; host or cells: cell lysate
Assay: MST binding of diC8-PIP2 to free GFP (negative control)
Procedure: The method utilizes cell lysates obtained from transfected/infected cells that are lysed and incubated with varying concentrations of a water-soluble analogue of PIP2 commercially available as diC8-PI(4,5)P2, in a 384 well plate. Other phosphoinositides such as diC8PI(4)P of diC8PI(5)P can also be utilized. After a brief incubation (10-30 mins) samples are loaded onto capillary chips purchased from the company Nanotemper. Samples are run on the Nanotemper Monolith instrument. This instrument is advertised to detect green fluorescent protein (GFP) tagged proteins, however we have also used TFP (teal FP) tagged proteins. The instrument provides a short infra-red laser pulse which produces a short thermal gradient. Protein that is interacting with the lipid migrates differently through this thermal gradient and its movement is evaluated by the fluorescence of the GFP/TFP tag on the protein. Based on the concentration of the dic8-phosphoinositide, this resolves into a sigmoidal relationship that delivers an apparent affinity (Kd) value. A test ligand can be added to this assay at a known concentration that is at or close to its Kd for the channel. A shift in the channel's affinity for PIP2 in this assay can help indicate whether this test compound is a good drug candidate for further biological experiments.
Results. […]

**Q.** Which results are given for `CCCCCCCC(=O)OC[C@H](COP(=O)(O)O[C@@H]1[C@H](O)[C@H](O)[C@@H](OP(=O)(O)O)[C@H](OP(=O)(O)O)[C@H]1O)OC(=O)CCCCCCC` [diC8-PIP2]?
**A.** Kd: > 800 µM; binding of diC8-PIP2 to free GFP (MST negative control): does not bind

Source: patent publication US20240358727A1, “MICROSCALE THERMOPHORESIS TO EVALUATE CHANNEL LIPID INTERACTIONS AND METHODS OF TREATING NAV CHANNELS RELATED DISEASES” (Northeastern University, priority 2023, published 2024)
